# From patent US9738634B2, “Heterocyclic amide compound and herbicide” (SYNGENTA PARTICIPATIONS AG, priority 2013, dated 2017)
# Key:
# Format in all cases: in vivo
# Conditions in all cases: treatment dosage 320 g/ha
# barnyard grass [1] = assay: Test Example 1: weedkilling efficacy, preemergent weed treatment in the submerged state; A: barnyard grass
# Method in brief: (§1)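 Submerged pre-emergence treatment, water-surface application of compound emulsion at g/ha dosages; 4 cm flooded alluvial soil, weeds sown and 2.5-leaf rice transplanted same day. Rated after 3 weeks, greenhouse.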
# bulrush [2] = assay: Test Example 1: weedkilling efficacy, preemergent weed treatment in the submerged state; B: bulrush
# Method in brief: as §1
# oval-leafed pondweed [3] = assay: Test Example 1: weedkilling efficacy, preemergent weed treatment in the submerged state; C: oval-leafed pondweed
# Method in brief: as §1
# transplanted rice = assay: Test Example 1: preemergent weed treatment in the submerged state, effect on crop; a: transplanted rice
# Method in brief: as §1
# barnyard grass [4] = assay: Test Example 2: weedkilling efficacy, growth period weed treatment in the submerged state; A: barnyard grass
# Method in brief: (§2)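 Seedlings at 1-2 leaves in 4 cm-deep submerged alluvial soil received emulsion formulations on the water surface, dosed per hectare; effects were judged 3 weeks on.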
# bulrush [5] = assay: Test Example 2: weedkilling efficacy, growth period weed treatment in the submerged state; B: bulrush
# Method in brief: as §2
# oval-leafed pondweed [6] = assay: Test Example 2: weedkilling efficacy, growth period weed treatment in the submerged state; C: oval-leafed pondweed
# Method in brief: as §2
# crabgrass [7] = assay: Test Example 3: weedkilling efficacy through soil treatment; D: crabgrass
# Method in brief: (§3)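 Crop and weed responses were judged three weeks after a uniform surface spray of the water-diluted emulsion at the given g/ha rate. Seeds sat beneath about 1.5 cm of sterilized diluvial soil, and boxes stood in a greenhouse at 25 to 30° C.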
# green foxtail [8] = assay: Test Example 3: weedkilling efficacy through soil treatment; E: green foxtail
# Method in brief: as §3
# barnyard grass [9] = assay: Test Example 3: weedkilling efficacy through soil treatment; F: barnyard grass
# Method in brief: as §3
# wild oat [10] = assay: Test Example 3: weedkilling efficacy through soil treatment; G: wild oat
# Method in brief: as §3
# black-grass [11] = assay: Test Example 3: weedkilling efficacy through soil treatment; H: black-grass
# Method in brief: as §3
# Italian ryegrass [12] = assay: Test Example 3: weedkilling efficacy through soil treatment; I: Italian ryegrass
# Method in brief: as §3
# common wind-grass [13] = assay: Test Example 3: weedkilling efficacy through soil treatment; J: common wind-grass
# Method in brief: as §3
# Indian mallow [14] = assay: Test Example 3: weedkilling efficacy through soil treatment; K: Indian mallow
# Method in brief: as §3
# redroot pigweed [15] = assay: Test Example 3: weedkilling efficacy through soil treatment; L: redroot pigweed
# Method in brief: as §3
# fig-leafed goosefoot [16] = assay: Test Example 3: weedkilling efficacy through soil treatment; M: fig-leafed goosefoot
# Method in brief: as §3
# chickweed [17] = assay: Test Example 3: weedkilling efficacy through soil treatment; N: chickweed
# Method in brief: as §3
# catchweed [18] = assay: Test Example 3: weedkilling efficacy through soil treatment; O: catchweed
# Method in brief: as §3
# directly sown rice [19] = assay: Test Example 3: soil treatment, effect on crop; b: directly sown rice
# Method in brief: as §3
# corn [20] = assay: Test Example 3: soil treatment, effect on crop; c: corn
# Method in brief: as §3
# soybean [21] = assay: Test Example 3: soil treatment, effect on crop; d: soybean
# Method in brief: as §3
# wheat [22] = assay: Test Example 3: soil treatment, effect on crop; e: wheat
# Method in brief: as §3
# beet [23] = assay: Test Example 3: soil treatment, effect on crop; f: beet
# Method in brief: as §3
# rapeseed [24] = assay: Test Example 3: soil treatment, effect on crop; g: rapeseed
# Method in brief: as §3
# crabgrass [25] = assay: Test Example 4: weedkilling efficacy by foliar treatment; D: crabgrass
# Method in brief: (§4)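 Seeds are spot-sown into sterilized diluvial soil and covered with about 1.5 cm of soil. After 14 days' greenhouse growth at 25 to 30° C, plants are sprayed on stems and leaves with diluted emulsion at the stated g/ha rate, then scored at 3 weeks.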
# green foxtail [26] = assay: Test Example 4: weedkilling efficacy by foliar treatment; E: green foxtail
# Method in brief: as §4
# barnyard grass [27] = assay: Test Example 4: weedkilling efficacy by foliar treatment; F: barnyard grass
# Method in brief: as §4
# wild oat [28] = assay: Test Example 4: weedkilling efficacy by foliar treatment; G: wild oat
# Method in brief: as §4
# black-grass [29] = assay: Test Example 4: weedkilling efficacy by foliar treatment; H: black-grass
# Method in brief: as §4
# Italian ryegrass [30] = assay: Test Example 4: weedkilling efficacy by foliar treatment; I: Italian ryegrass
# Method in brief: as §4
# common wind-grass [31] = assay: Test Example 4: weedkilling efficacy by foliar treatment; J: common wind-grass
# Method in brief: as §4
# Indian mallow [32] = assay: Test Example 4: weedkilling efficacy by foliar treatment; K: Indian mallow
# Method in brief: as §4
# redroot pigweed [33] = assay: Test Example 4: weedkilling efficacy by foliar treatment; L: redroot pigweed
# Method in brief: as §4
# fig-leafed goosefoot [34] = assay: Test Example 4: weedkilling efficacy by foliar treatment; M: fig-leafed goosefoot
# Method in brief: as §4
# chickweed [35] = assay: Test Example 4: weedkilling efficacy by foliar treatment; N: chickweed
# Method in brief: as §4
# catchweed [36] = assay: Test Example 4: weedkilling efficacy by foliar treatment; O: catchweed
# Method in brief: as §4
# birds-eye speedwell = assay: Test Example 4: weedkilling efficacy by foliar treatment; p: birds-eye speedwell
# Method in brief: as §4
# directly sown rice [37] = assay: Test Example 4: foliar treatment, effect on crop; b: directly sown rice
# Method in brief: as §4
# corn [38] = assay: Test Example 4: foliar treatment, effect on crop; c: corn
# Method in brief: as §4
# soybean [39] = assay: Test Example 4: foliar treatment, effect on crop; d: soybean
# Method in brief: as §4
# wheat [40] = assay: Test Example 4: foliar treatment, effect on crop; e: wheat
# Method in brief: as §4
# beet [41] = assay: Test Example 4: foliar treatment, effect on crop; f: beet
# Method in brief: as §4
# rapeseed [42] = assay: Test Example 4: foliar treatment, effect on crop; g: rapeseed
# Method in brief: as §4
compound,measurement,setting,value
CC1=C(c2ccccc2)C(=O)N(C(C)(C)C(=O)Nc2cc(-c3ccc(F)nc3)ccn2)CO1 [B-5-01],A (barnyard grass) weedkilling efficacy grade,barnyard grass [1],"4 (weed kill ratio 70% or more, less than 90%)"
same,B (bulrush) weedkilling efficacy grade,bulrush [2],"5 (weed kill ratio 90% or more, (practically complete withering))"
same,C (oval-leafed pondweed) weedkilling efficacy grade,oval-leafed pondweed [3],"4 (weed kill ratio 70% or more, less than 90%)"
same,a (transplanted rice) effect on crop grade,transplanted rice,0 (weed kill ratio 5% or less (practically no effect))
same,A (barnyard grass) weedkilling efficacy grade,barnyard grass [4],"3 (weed kill ratio 40% or more, less than 70%)"
same,B (bulrush) weedkilling efficacy grade,bulrush [5],"3 (weed kill ratio 40% or more, less than 70%)"
same,C (oval-leafed pondweed) weedkilling efficacy grade,oval-leafed pondweed [6],"4 (weed kill ratio 70% or more, less than 90%)"
same,D (crabgrass) weedkilling efficacy grade,crabgrass [7],0 (weed kill ratio 5% or less (practically no effect))
same,E (green foxtail) weedkilling efficacy grade,green foxtail [8],"2 (weed kill ratio 20% or more, less than 40%)"
same,F (barnyard grass) weedkilling efficacy grade,barnyard grass [9],0 (weed kill ratio 5% or less (practically no effect))
same,G (wild oat) weedkilling efficacy grade,wild oat [10],0 (weed kill ratio 5% or less (practically no effect))
same,H (black-grass) weedkilling efficacy grade,black-grass [11],0 (weed kill ratio 5% or less (practically no effect))
same,I (Italian ryegrass) weedkilling efficacy grade,Italian ryegrass [12],0 (weed kill ratio 5% or less (practically no effect))
same,J (common wind-grass) weedkilling efficacy grade,common wind-grass [13],"4 (weed kill ratio 70% or more, less than 90%)"
same,K (Indian mallow) weedkilling efficacy grade,Indian mallow [14],0 (weed kill ratio 5% or less (practically no effect))
same,L (redroot pigweed) weedkilling efficacy grade,redroot pigweed [15],0 (weed kill ratio 5% or less (practically no effect))
same,M (fig-leafed goosefoot) weedkilling efficacy grade,fig-leafed goosefoot [16],0 (weed kill ratio 5% or less (practically no effect))
same,N (chickweed) weedkilling efficacy grade,chickweed [17],0 (weed kill ratio 5% or less (practically no effect))
same,O (catchweed) weedkilling efficacy grade,catchweed [18],0 (weed kill ratio 5% or less (practically no effect))
same,b (directly sown rice) effect on crop grade,directly sown rice [19],0 (weed kill ratio 5% or less (practically no effect))
same,c (corn) effect on crop grade,corn [20],0 (weed kill ratio 5% or less (practically no effect))
same,d (soybean) effect on crop grade,soybean [21],0 (weed kill ratio 5% or less (practically no effect))
same,e (wheat) effect on crop grade,wheat [22],0 (weed kill ratio 5% or less (practically no effect))
same,f (beet) effect on crop grade,beet [23],0 (weed kill ratio 5% or less (practically no effect))
same,g (rapeseed) effect on crop grade,rapeseed [24],0 (weed kill ratio 5% or less (practically no effect))
same,D (crabgrass) weedkilling efficacy grade,crabgrass [25],0 (weed kill ratio 5% or less (practically no effect))
same,E (green foxtail) weedkilling efficacy grade,green foxtail [26],0 (weed kill ratio 5% or less (practically no effect))
same,F (barnyard grass) weedkilling efficacy grade,barnyard grass [27],0 (weed kill ratio 5% or less (practically no effect))
same,G (wild oat) weedkilling efficacy grade,wild oat [28],0 (weed kill ratio 5% or less (practically no effect))
same,H (black-grass) weedkilling efficacy grade,black-grass [29],0 (weed kill ratio 5% or less (practically no effect))
same,I (Italian ryegrass) weedkilling efficacy grade,Italian ryegrass [30],0 (weed kill ratio 5% or less (practically no effect))
same,J (common wind-grass) weedkilling efficacy grade,common wind-grass [31],0 (weed kill ratio 5% or less (practically no effect))
same,K (Indian mallow) weedkilling efficacy grade,Indian mallow [32],0 (weed kill ratio 5% or less (practically no effect))
same,L (redroot pigweed) weedkilling efficacy grade,redroot pigweed [33],0 (weed kill ratio 5% or less (practically no effect))
same,M (fig-leafed goosefoot) weedkilling efficacy grade,fig-leafed goosefoot [34],"3 (weed kill ratio 40% or more, less than 70%)"
same,N (chickweed) weedkilling efficacy grade,chickweed [35],0 (weed kill ratio 5% or less (practically no effect))
same,O (catchweed) weedkilling efficacy grade,catchweed [36],"1 (weed kill ratio 5% or more, less than 20%)"
same,P (birds-eye speedwell) weedkilling efficacy grade,birds-eye speedwell,"3 (weed kill ratio 40% or more, less than 70%)"
same,b (directly sown rice) effect on crop grade,directly sown rice [37],0 (weed kill ratio 5% or less (practically no effect))
same,c (corn) effect on crop grade,corn [38],0 (weed kill ratio 5% or less (practically no effect))
same,d (soybean) effect on crop grade,soybean [39],0 (weed kill ratio 5% or less (practically no effect))
same,e (wheat) effect on crop grade,wheat [40],0 (weed kill ratio 5% or less (practically no effect))
same,f (beet) effect on crop grade,beet [41],0 (weed kill ratio 5% or less (practically no effect))
same,g (rapeseed) effect on crop grade,rapeseed [42],0 (weed kill ratio 5% or less (practically no effect))
